In patent US9334238B2, “N-substituted pyridinylidenes for combating animal pests” (BASF SE, priority 2012, dated 2016):

Legend:
Assay type in all cases: in vivo
[1] = test system: Rice Green Leafhopper (Nephotettix virescens); assay: Rice green leafhopper test, sprayed rice seedlings; conditions: 500 ppm spray on rice seedlings, adults, after 72 hours, read-out: mortality in comparison with untreated controls
Experimental: B.5 Rice Green Leafhopper (Nephotettix virescens)
(§1) Rice seedlings were cleaned and washed 24 hours before spraying. The active compounds were formulated in 50:50 acetone:water (vol:vol), and 0.1% vol/vol surfactant (EL 620) wss added. Potted rice seedlings were sprayed with 5 ml test solution, air dried, placed in cages and inoculated with 10 adults. Treated rice plants were kept at about 28-29° C. and relative humidity of about 50-60%. Percent mortality was recorded after 72 hours.

[2] = test system: Orchid thrips (dichromothrips corbetti); assay: Orchid thrips floral-immersion test; conditions: orchid flowers dipped, adult thrips, 72 hours after treatment, read-out: mortality in comparison with untreated controls
Experimental: B.4 Orchid thrips (dichromothrips corbetti)
Dichromothrips corbetti adults used for bioassay were obtained from a colony maintained continuously under laboratory conditions. For testing purposes, the test compound was diluted in a 1:1 mixture of acetone:water (vol:vol), plus 0.01% vol/vol Alkamuls® EL 620 surfactant.
Thrips potency of each compound was evaluated by using a floral-immersion technique. Plastic petri dishes were used as test arenas. All petals of individual, intact orchid flowers were dipped into treatment solution and allowed to dry. Treated flowers were placed into individual petri dishes along with about 20 adult thrips. The petri dishes were then covered with lids. All test arenas were held under continuous light and a temperature of about 28° C. for duration of the assay. After 3 days, the numbers of live thrips were counted on each flower, and along inner walls of each petri dish. The percent mortality was recorded 72 hours after treatment.

[3] = test system: green peach aphid (Myzus persicae); assay: Green peach aphid systemic test, artificial diet in 96-well microtiter plates; conditions: 72 h, 2500 ppm in aphid diet, adult aphids, 3 days, read-out: mortality in comparison with untreated controls
Description: B.1 Green Peach Aphid (Myzus persicae)
For evaluating control of green peach aphid (Myzus persicae) through systemic means, the test unit consisted of 96-well-microtiter plates containing liquid artificial diet under an artificial membrane.
The compounds were formulated using a solution containing 75% v/v water and 25% v/v DMSO. Different concentrations of formulated compounds were pipetted into the aphid diet, using a custom built pipetter, at two replications.
After application, 5-8 adult aphids were placed on the artificial membrane inside the microtiter plate wells. The aphids were then allowed to suck on the treated aphid diet and incubated at about 23±1° C. and about 50±5% relative humidity for 3 days. Aphid mortality and fecundity was then visually assessed.

[4] = test system: vetch aphid (Megoura viciae); assay: Vetch aphid contact/systemic test, broad bean leaf disks; conditions: foliar, 120 h, 2500 ppm sprayed onto leaf disks, adult aphids, 5 days, read-out: mortality in comparison with untreated controls
Experimental: B.3 Vetch Aphid (Megoura viciae)
For evaluating control of vetch aphid (Megoura viciae) through contact or systemic means the test unit consisted of 24-well-microtiter plates containing broad bean leaf disks.
The compounds were formulated using a solution containing 75% v/v water and 25% v/v DMSO. Different concentrations of formulated compounds were sprayed onto the leaf disks at 2.5 μl, using a custom built micro atomizer, at two replications.
After application, the leaf disks were air-dried and 5-8 adult aphids placed on the leaf disks inside the microtiter plate wells. The aphids were then allowed to suck on the treated leaf disks and incubated at about 23±1° C. and about 50±5% relative humidity for 5 days. Aphid mortality and fecundity was then visually assessed.

[5] = test system: Cowpea Aphid (Aphis craccivora); assay: Cowpea aphid test, sprayed potted cowpea plants; conditions: 500 ppm spray on infested cowpea plants, after 72 hours, read-out: mortality in comparison with untreated controls
Experimental: B.2 Cowpea Aphid (Aphis craccivora)
The active compound was dissolved at the desired concentration in a mixture of 1:1 (vol:vol) distilled water: acetone. Surfactant (Alkamuls® EL 620) was added at a rate of 0.1% (vol/vol). The test solution was prepared at the day of use.
Potted cowpea plants were colonized with approximately 50-100 aphids of various stages by manually transferring a leaf tissue cut from infested plant 24 hours before application. Plants were sprayed after the pest population has been recorded. Treated plants were maintained on light carts at about 28° C. Percent mortality was assessed after 72 hours.

[6] = test system: Mediterranean fruitfly (Ceratitis capitata); assay: Mediterranean fruitfly test, insect diet with eggs in microtiter plates; conditions: 120 h, 2500 ppm sprayed onto insect diet, egg and larval mortality, 5 days, read-out: mortality in comparison with untreated controls
Experimental: B.7 Mediterranean Fruitfly (Ceratitis capitata)
For evaluating control of Mediterranean fruitfly (Ceratitis capitata) the test unit consists of microtiter plates containing an insect diet and 50-80 C. capitata eggs.
The compounds were formulated using a solution containing 75% v/v water and 25% v/v DMSO. Different concentrations of formulated compounds were sprayed onto the insect diet at 5 μl, using a custom built micro atomizer, at two replications.
After application, microtiter plates were incubated at about 28±1° C. and about 80±5% relative humidity for 5 days. Egg and larval mortality was then visually assessed.

[7] = test system: Rice Brown Plant Hopper (Nilaparvata lugens); assay: Rice brown plant hopper test, sprayed rice seedlings; conditions: 500 ppm spray on rice seedlings, adults, after 72 hours, read-out: mortality in comparison with untreated controls
Experimental: B.6 Rice Brown Plant Hopper (Nilaparvata lugens)
as §1, with “compounds was” for “compounds were”, “acetone:water (vol:vol)” for “acetone:water (vol:vol),”, “620) was” for “620) wss”

O=C(/C=C1\C=CC=CN1Cc1ccc(Cl)nc1)C(F)(F)F [E-1, (3E)-3-[1-[(6-chloro-3-pyridyl)methyl]-2-pyridylidene]-1,1,1-trifluoro-propan-2-one]
≥ 75%: mortality at 500 ppm [1] | mortality at 500 ppm [2] | mortality at 2500 ppm [3] | mortality at 2500 ppm [4] | mortality at 500 ppm [5] | mortality at 2500 ppm [6] | mortality at 500 ppm [7]
